Experimental data published in US20260373160A1, “COMPOSITION FOR IMPROVEMENT, PREVENTION OR TREATMENT OF STRESS AND DEPRESSION RELATED DISEASES COMPRISING TALAMPANEL” (POSTECH RESEARCH AND BUSINESS DEVELOPMENT FOUNDATION, priority 2022, published 2026).

Legend:
Type in all cases: in vivo, C57BL6/J mice
[1] = Body weight change in mouse model of chronic restraint stress-based depression; conditions: for body weight change compared to the control group: 15 days, with 4 h daily restraint stress, FIG. 3
Procedure: (§1) Experimental animals, 8-9 week old male C57BL6/J mice, were provided by Hyochang Science in Daegu, Korea. Mice were provided with food and water ad libitum under diurnal lighting conditions (12 hours light, 12 hours dark). All animal experimental procedures were approved by the Institutional Animal Care and Use Committee (IACUC) of Pohang University of Science and Technology, and all experiments were conducted in compliance with the approved guidelines.
(§2) To induce mice of chronic restraint stress-based depression, 8-9 week old male C57BL6/J mice were housed in single cages one day before the experiment.
(§3) Thirty minutes after drug administration, the mice were induced to enter a 50 ml conical tube with a hole to allow breathing, and paper towels were placed to eliminate any empty space, ensuring the mice remained in restraint for 4 hours.

[2] = test system: mouse model of chronic stress-induced depression; assay: Tail suspension test (TST) in mouse model of chronic stress-induced depression; conditions: 28 days of restraint stress, i.p. daily; 6 minutes scored; FIG. 6
Procedure: as §1, §2
Thirty minutes after drug administration, the mice were induced to enter a 50 ml conical tube with a hole to allow breathing, and paper towels were placed to eliminate any empty space, ensuring the mice remained in restraint for 4 hours. […]
The activity of each mouse was recorded on video for 6 minutes. Up to four mice were tested at a time, and the immobile time of each mouse was measured for a total of 6 minutes. The movement status of the mouse was defined based on limb movement, with a state of immobility determined when all limbs remained motionless, and the immobile time was measured. […]

[3] = test system: mouse model of chronic stress-induced depression; assay: Sucrose preference test (SPT) in mouse model of chronic stress-induced depression; conditions: 28 days of restraint stress, i.p. daily; 2% sugar solution vs water, 3 hours; FIG. 7
Procedure: as §1, §2, §3
To perform a sugar preference test in a mouse model of chronic stress-induced depression, the mice were deprived of food and water for 18 hours on Day 1 of the experiment. On Days 2 and 3, the mice were provided with food, along with a 2% sugar solution and water simultaneously to allow exposure to the 2% sugar. […] To measure the intake of the mice, the weights of the solution and bottle were recorded before and after the 3-hour test.
Sucrose preference was calculated by the following expression: (Sugar solution intake/Total liquid intake)×100. […]

[4] = test system: mouse model of chronic stress-induced depression; assay: Forced swim test (FST) in mouse model of chronic stress-induced depression; conditions: i.p. daily, last 4 of 6 minutes scored
Procedure: as §1
To induce mice of chronic restraint stress-based depression, 8-9 week old male C57BL6/J mice were housed in single cages one day before the experiment. […]
To perform the forced swim test in a mouse model of chronic stress-induced depression, a cylindrical tank, with a diameter of 20 cm and a height of 30 cm, was filled with water at a temperature range of 25 °C to 28 °C until the water level reached 15 cm. Then, each mouse was carefully placed in water, and the mouse's activity was recorded on video for 6 minutes. […]
Of the total 6 minutes of recording, the first 2 minutes were excluded as habituation, and the immobile time of each mouse was measured for the next 4 minutes. Mouse movement was defined as any activity other than the minimal movements required to maintain body balance and to ensure the head remained above water, and the immobile time was measured. […]

Structure (SMILES): CC(=O)N1N=C(c2ccc(N)cc2)c2cc3c(cc2C[C@H]1C)OCO3 [talampanel]
- body weight change compared to the control group ([1]; 1 mg/kg i.p. daily): increase in body weight compared to the control group from Day 8 of administration
- body weight change compared to the control group ([1]; 10 mg/kg i.p. daily): increase in body weight compared to the control group from Day 8 of administration
- effect on weight loss due to stress and depression ([1]; i.p. daily, restraint stress, conclusion from body weight measurement): preventing weight loss caused by sustained stress
- immobile time in tail suspension test compared to the control group [2]: significant reduction in immobile time
- sucrose preference (sugar solution intake/total liquid intake) compared to the control group [3]: increased preference for the sugar solution compared to the control group
- immobile time in forced swim test compared to the control group ([4]; 15 days of restraint stress, FIG. 4): significant reduction in immobile time
- immobile time in forced swim test compared to the control group ([4]; 28 days of restraint stress, FIG. 5): significant reduction in immobile time
